Experimental data reported in ChEMBL document CHEMBL5303573, “Mapping human microbiome drug metabolism by gut bacteria and their genes” (Nature, 2019).

Tests used:
[1] = The drug is tested on Dorea formicigenerans strain: ATCC27755 for biotransformation. The drug concentrations were measured before and after a 12-h incubation by liquid-chromatography-coupled mass spectrometry (LC–MS); conditions: 2 µM
[2] = parabacteroides distasonis, 12 h, 2 µM
Description: The drug is tested on Parabacteroides distasonis strain: ATCC8503 for biotransformation. The drug concentrations were measured before and after a 12-h incubation by liquid-chromatography-coupled mass spectrometry (LC–MS)

[3] = The drug is tested on Ruminococcus gnavus strain: ATCC29149 for biotransformation. The drug concentrations were measured before and after a 12-h incubation by liquid-chromatography-coupled mass spectrometry (LC–MS); conditions: mediterraneibacter gnavus, 2 µM
[4] = bacteroides fragilis, 12 h, 2 µM
Description: The drug is tested on Bacteroides fragilis strain: DS-208 for biotransformation. The drug concentrations were measured before and after a 12-h incubation by liquid-chromatography-coupled mass spectrometry (LC–MS)

[5] = The drug is tested on Collinsella aerofaciens strain: ATCC25986 for biotransformation. The drug concentrations were measured before and after a 12-h incubation by liquid-chromatography-coupled mass spectrometry (LC–MS); conditions: 2 µM
[6] = bacteroides fragilis, 12 h, 2 µM; remark: listed apart in the source
Description: The drug is tested on Bacteroides fragilis strain: 3397 (T10) for biotransformation. The drug concentrations were measured before and after a 12-h incubation by liquid-chromatography-coupled mass spectrometry (LC–MS)

[7] = bacteroides fragilis, 12 h, 2 µM; remark: listed apart in the source
Description: The drug is tested on Bacteroides fragilis strain: NCTC 9343 for biotransformation. The drug concentrations were measured before and after a 12-h incubation by liquid-chromatography-coupled mass spectrometry (LC–MS)

[8] = The drug is tested on Anaerococcus hydrogenalis strain: DSM7454 for biotransformation. The drug concentrations were measured before and after a 12-h incubation by liquid-chromatography-coupled mass spectrometry (LC–MS); conditions: 2 µM
[9] = The drug is tested on Clostridium sp. strain: fecal isolate for biotransformation. The drug concentrations were measured before and after a 12-h incubation by liquid-chromatography-coupled mass spectrometry (LC–MS); conditions: 2 µM
[10] = The drug is tested on Escherichia coli strain: BW25113 for biotransformation. The drug concentrations were measured before and after a 12-h incubation by liquid-chromatography-coupled mass spectrometry (LC–MS); conditions: 2 µM
[11] = The drug is tested on Clostridium symbiosum strain: ATCC14940 for biotransformation. The drug concentrations were measured before and after a 12-h incubation by liquid-chromatography-coupled mass spectrometry (LC–MS); conditions: 2 µM
[12] = The drug is tested on Eubacterium ventriosum strain: ATCC27560 for biotransformation. The drug concentrations were measured before and after a 12-h incubation by liquid-chromatography-coupled mass spectrometry (LC–MS); format: ADME; set-up: dose 2 uM, timepoint 0 vs 12 hours; conditions: 2 µM
[13] = The drug is tested on Ruminococcus lactaris strain: ATCC29176 for biotransformation. The drug concentrations were measured before and after a 12-h incubation by liquid-chromatography-coupled mass spectrometry (LC–MS); conditions: 2 µM
[14] = anaerostipes sp., 12 h, 2 µM
Description: The drug is tested on Anaerostipes sp. strain: fecal isolate for biotransformation. The drug concentrations were measured before and after a 12-h incubation by liquid-chromatography-coupled mass spectrometry (LC–MS)

[15] = The drug is tested on Bacteroides cellulosilyticus strain: DSM14838 for biotransformation. The drug concentrations were measured before and after a 12-h incubation by liquid-chromatography-coupled mass spectrometry (LC–MS); conditions: 2 µM
[16] = The drug is tested on Edwardsiella tarda strain: ATCC23685 for biotransformation. The drug concentrations were measured before and after a 12-h incubation by liquid-chromatography-coupled mass spectrometry (LC–MS); conditions: 2 µM
[17] = bifidobacterium adolescentis, 12 h, 2 µM
Description: The drug is tested on Bifidobacterium adolescentis strain: ATCC 15703 for biotransformation. The drug concentrations were measured before and after a 12-h incubation by liquid-chromatography-coupled mass spectrometry (LC–MS)

[18] = The drug is tested on Bifidobacterium longum subsp. Infantis strain: CCUG52486 for biotransformation. The drug concentrations were measured before and after a 12-h incubation by liquid-chromatography-coupled mass spectrometry (LC–MS); conditions: 2 µM
[19] = The drug is tested on Bacteroides caccae strain: ATCC43185 for biotransformation. The drug concentrations were measured before and after a 12-h incubation by liquid-chromatography-coupled mass spectrometry (LC–MS); conditions: 2 µM

Row | SMILES | Bacterial Biotransformation [1] | Bacterial Biotransformation [2] | Bacterial Biotransformation [3] | Bacterial Biotransformation [4] | Bacterial Biotransformation [5] | Bacterial Biotransformation [6] | Bacterial Biotransformation [7] | Bacterial Biotransformation [8] | Bacterial Biotransformation [9] | Bacterial Biotransformation [10] | Bacterial Biotransformation [11] | Bacterial Biotransformation [12] | Bacterial Biotransformation [13] | Bacterial Biotransformation [14] | Bacterial Biotransformation [15] | Bacterial Biotransformation [16] | Bacterial Biotransformation [17] | Bacterial Biotransformation [18] | Bacterial Biotransformation [19]
1 | CCN(C(C)=O)c1cccc(-c2ccnc3c(C#N)cnn23)c1 [ZALEPLON] | Compound NOT metabolized | Compound NOT metabolized | Compound NOT metabolized | Compound NOT metabolized | Compound NOT metabolized | Compound NOT metabolized | Compound metabolized | Compound NOT metabolized | Compound metabolized | Compound NOT metabolized | Compound NOT metabolized | Compound NOT metabolized | Compound NOT metabolized | – | – | – | – | – | –
2 | CCCCc1nc(Cl)c(CO)n1Cc1ccc(-c2ccccc2-c2nn[nH]n2)cc1 [LOSARTAN] | Compound NOT metabolized | Compound metabolized | Compound NOT metabolized | – | Compound NOT metabolized | – | Compound metabolized | Compound NOT metabolized | – | – | Compound NOT metabolized | Compound NOT metabolized | Compound NOT metabolized | Compound NOT metabolized | Compound metabolized | Compound metabolized | Compound NOT metabolized | Compound NOT metabolized | –
3 | CNNCc1ccc(C(=O)NC(C)C)cc1 [PROCARBAZINE] | Compound NOT metabolized | Compound NOT metabolized | Compound NOT metabolized | – | Compound NOT metabolized | Compound NOT metabolized | Compound NOT metabolized | Compound NOT metabolized | Compound NOT metabolized | Compound NOT metabolized | Compound NOT metabolized | Compound NOT metabolized | Compound NOT metabolized | Compound NOT metabolized | – | Compound NOT metabolized | Compound NOT metabolized | Compound NOT metabolized | Compound NOT metabolized
4 | CC(N)C12CC3CC(CC(C3)C1)C2 (configuration not stated) [RIMANTADINE] | Compound NOT metabolized | Compound NOT metabolized | Compound NOT metabolized | Compound NOT metabolized | Compound NOT metabolized | Compound NOT metabolized | Compound NOT metabolized | Compound NOT metabolized | Compound NOT metabolized | – | Compound NOT metabolized | Compound NOT metabolized | Compound NOT metabolized | Compound NOT metabolized | Compound NOT metabolized | Compound NOT metabolized | Compound NOT metabolized | Compound NOT metabolized | Compound NOT metabolized
5 | CN(CCOc1ccc(CC2SC(=O)NC2=O)cc1)c1ccccn1.O=C(O)/C=C\C(=O)O (configuration not stated) [ROSIGLITAZONE MALEATE] | Compound NOT metabolized | Compound NOT metabolized | Compound NOT metabolized | Compound NOT metabolized | Compound NOT metabolized | Compound NOT metabolized | Compound NOT metabolized | Compound NOT metabolized | Compound NOT metabolized | – | Compound NOT metabolized | Compound NOT metabolized | Compound NOT metabolized | Compound NOT metabolized | Compound NOT metabolized | Compound NOT metabolized | Compound NOT metabolized | Compound NOT metabolized | Compound NOT metabolized
6 | CC(CN1c2ccccc2Sc2ccccc21)N(C)C (configuration not stated) [PROMETHAZINE] | Compound NOT metabolized | – | Compound NOT metabolized | Compound NOT metabolized | Compound NOT metabolized | Compound NOT metabolized | Compound NOT metabolized | Compound NOT metabolized | – | – | Compound NOT metabolized | Compound NOT metabolized | – | Compound NOT metabolized | Compound NOT metabolized | Compound NOT metabolized | Compound NOT metabolized | Compound NOT metabolized | Compound NOT metabolized
7 | CCCc1nc2c(C)cc(-c3nc4ccccc4n3C)cc2n1Cc1ccc(-c2ccccc2C(=O)O)cc1 | Compound NOT metabolized | Compound metabolized | Compound NOT metabolized | – | Compound NOT metabolized | – | Compound metabolized | Compound NOT metabolized | – | Compound NOT metabolized | Compound NOT metabolized | Compound NOT metabolized | Compound NOT metabolized | Compound NOT metabolized | Compound metabolized | Compound NOT metabolized | Compound NOT metabolized | Compound NOT metabolized | –
8 | O=C([O-])C[C@H](O)C[C@H](O)/C=C/c1c(C2CC2)nc2ccccc2c1-c1ccc(F)cc1.O=C([O-])C[C@H](O)C[C@H](O)/C=C/c1c(C2CC2)nc2ccccc2c1-c1ccc(F)cc1.[Ca+2] [PITAVASTATIN CALCIUM] | Compound NOT metabolized | Compound NOT metabolized | Compound NOT metabolized | Compound NOT metabolized | Compound NOT metabolized | Compound NOT metabolized | Compound NOT metabolized | Compound NOT metabolized | Compound NOT metabolized | Compound NOT metabolized | Compound NOT metabolized | Compound NOT metabolized | Compound NOT metabolized | Compound NOT metabolized | – | Compound NOT metabolized | Compound NOT metabolized | Compound NOT metabolized | Compound NOT metabolized
9 | COc1cc2nc(N3CCN(C(=O)c4ccco4)CC3)nc(N)c2cc1OC [PRAZOSIN] | Compound NOT metabolized | Compound NOT metabolized | – | Compound NOT metabolized | Compound NOT metabolized | Compound NOT metabolized | – | Compound NOT metabolized | – | – | – | Compound NOT metabolized | Compound NOT metabolized | Compound NOT metabolized | Compound NOT metabolized | Compound NOT metabolized | Compound NOT metabolized | Compound NOT metabolized | Compound NOT metabolized
